In PMC12268261, “The aldehyde (ALD) locus controls C6-aldehyde production in kiwifruit and affects consumer perception of fruit aroma” (Plant Physiology, 2025):
Where two headings read alike, the source gives them in different places.

How the values were obtained:
AcLOX4a-D1 = target: T1, AcLOX4a-D1 (Actinidia chinensis, UniProt A0A2R6P8A4); test: spectrophotometric, product formation at […] nm; assay type: biochemical; conditions: air-saturated 30 mM Tris-Cl, pH 7.5, read-out: Km-app /
T1 construct: gene CEY00_Acc32486; N-terminal HIS6-MBP fusion (pMAL-c6T), tag kept; E. coli BL21 (DE3) Codon Plus RIL
T1 sequence (A0A2R6P8A4 entry or part of it): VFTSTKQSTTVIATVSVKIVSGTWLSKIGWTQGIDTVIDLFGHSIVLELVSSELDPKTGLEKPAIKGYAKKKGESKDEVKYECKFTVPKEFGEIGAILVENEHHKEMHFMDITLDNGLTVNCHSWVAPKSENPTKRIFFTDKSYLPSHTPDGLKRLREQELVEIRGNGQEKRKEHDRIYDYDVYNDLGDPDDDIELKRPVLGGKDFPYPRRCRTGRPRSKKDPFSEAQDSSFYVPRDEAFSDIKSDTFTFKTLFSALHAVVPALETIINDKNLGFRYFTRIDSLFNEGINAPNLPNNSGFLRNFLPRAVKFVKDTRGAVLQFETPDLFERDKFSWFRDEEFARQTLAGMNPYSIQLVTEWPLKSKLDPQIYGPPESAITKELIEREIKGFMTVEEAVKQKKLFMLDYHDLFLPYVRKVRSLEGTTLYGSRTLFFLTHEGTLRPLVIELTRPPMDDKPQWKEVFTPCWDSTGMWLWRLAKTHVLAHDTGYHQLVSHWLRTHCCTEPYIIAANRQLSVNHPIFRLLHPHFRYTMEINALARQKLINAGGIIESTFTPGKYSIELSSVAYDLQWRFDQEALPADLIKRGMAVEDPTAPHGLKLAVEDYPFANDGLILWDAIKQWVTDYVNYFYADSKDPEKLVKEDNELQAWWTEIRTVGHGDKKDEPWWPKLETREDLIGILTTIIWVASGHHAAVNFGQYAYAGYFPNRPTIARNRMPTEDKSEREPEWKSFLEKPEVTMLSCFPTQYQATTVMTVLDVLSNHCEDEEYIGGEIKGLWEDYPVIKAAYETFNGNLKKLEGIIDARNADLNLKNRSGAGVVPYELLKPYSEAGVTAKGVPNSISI

AcLOX4c-D1 = target: T2, AcLOX4c-D1 (Actinidia chinensis, UniProt Z9ABF8LHO4); test: spectrophotometric, product formation at […] nm; assay type: biochemical; conditions: air-saturated 30 mM Tris-Cl, pH 7.5; substrate inhibition at >50 µM; read-out: Km-app /
T2 construct: N-terminal HIS6-MBP fusion (pMAL-c6T), tag kept; E. coli BL21 (DE3) Codon Plus RIL
T2 sequence (Z9ABF8LHO4 57-898): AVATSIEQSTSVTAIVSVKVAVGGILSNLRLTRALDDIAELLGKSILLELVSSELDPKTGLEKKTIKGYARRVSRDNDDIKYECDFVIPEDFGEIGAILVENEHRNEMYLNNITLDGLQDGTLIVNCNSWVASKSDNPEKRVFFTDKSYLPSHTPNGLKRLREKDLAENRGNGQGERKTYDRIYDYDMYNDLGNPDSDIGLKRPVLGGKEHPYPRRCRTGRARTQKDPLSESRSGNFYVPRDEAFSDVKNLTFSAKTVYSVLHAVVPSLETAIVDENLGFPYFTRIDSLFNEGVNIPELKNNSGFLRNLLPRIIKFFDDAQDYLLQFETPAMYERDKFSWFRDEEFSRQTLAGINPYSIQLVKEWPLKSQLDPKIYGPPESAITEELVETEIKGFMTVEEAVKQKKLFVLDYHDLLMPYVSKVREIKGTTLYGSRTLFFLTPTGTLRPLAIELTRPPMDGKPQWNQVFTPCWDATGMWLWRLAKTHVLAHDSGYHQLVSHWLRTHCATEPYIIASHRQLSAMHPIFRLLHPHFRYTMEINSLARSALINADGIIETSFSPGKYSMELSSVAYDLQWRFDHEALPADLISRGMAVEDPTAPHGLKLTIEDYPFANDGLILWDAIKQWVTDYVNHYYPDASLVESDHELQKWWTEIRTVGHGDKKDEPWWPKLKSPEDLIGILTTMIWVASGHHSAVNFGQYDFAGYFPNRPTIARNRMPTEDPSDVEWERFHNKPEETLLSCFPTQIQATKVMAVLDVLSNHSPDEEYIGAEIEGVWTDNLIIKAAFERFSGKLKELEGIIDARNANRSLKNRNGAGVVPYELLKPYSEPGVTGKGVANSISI

Km (AcLOX4a-D1; substrate inhibition at >125 µM) [µM] | Km (AcLOX4c-D1) [µM] | Km (AcLOX4a-D1) [µM] | SMILES
193 | 59.2 | – | CCCCC/C=C\C/C=C\CCCCCCCC(=O)O [linoleic acid]
– | – | 133 | CC/C=C\C/C=C\C/C=C\CCCCCCCC(=O)O [α-linolenic acid]
